Patent US20160326547A1, “TRANSGENIC PRODUCTION OF HEPARIN” (LFB USA, INC., priority 2013, published 2016)
“Also recorded” adds a separate entry of the source.

How the values were obtained:
lactating goats [1] = experiment: Experiment 1: systemic (intravenous) administration of heparin, toxicity study in lactating goats; format: in vivo, goat
Method: (§1) A study was conducted to determine if the production of heparin in the mammary gland would also have a significant effect on the producing animal. The protein produced by the transgene can potentially affect the mammary gland directly. In addition, it is known that there is potential leakage of the protein into the systemic system. To assess the potential effects of systemic and infused heparin on the goat, the study outlined below was performed. Blood was drawn and milk collected from each milking animal at least once daily during two experiments to determine the effects of heparin administration relative to systemic and udder infusion routes. The levels of heparin, and clotting times as indicated by aPTT were calculated from blood serum. Milk volumes were measured and heparin levels in the milk were determined. In addition, the quality of the milk (color, consistency, evidence of clumping, blood, or mastitis) was noted. The general health of each animal was assessed daily, including a rectal temperature. Since heparin is an anticoagulant, animals were also inspected daily for any gross signs of bleeding, such as abnormal bruising or petechiae. Six normal, non-transgenic, lactating goats were fed approximately four pounds of specially formulated vegetarian goat feed, per day, and given a combination of timothy and alfalfa hay as well as free access to water and plain and mineralized salt blocks. As these were lactating animals, they were milked daily starting on the day they arrived. The milk volume was measured each day and a rectal temperature recorded Milk volumes and rectal temperatures prior to the first or second experiment can be seen below in Table 7. Animals were manually restrained so that the jugular vein could be identified. A 21-gauge ¾ inch butterfly needle (BD Vacutainer Blood Collection Set Ref 367251, Franklin Lakes, N.J. USA) was inserted into the vessel, and the blood was collected into 2-1.8 ml sodium citrate vacutainer tubes (BD Vacutainer, Buffered Na Citrate, Franklin Lakes, N.J. USA). After collection (or after blood collection and heparin administration—see below) the needle was removed, and pressure was applied at the collection site to stop any bleeding. The animal received positive reinforcement (grain reward) after each procedure. The animals were restrained as above. The butterfly needle used for blood collection described above is designed so that blood can be collected via a vacutainer blood collection tube, or a syringe can be attached. Thus, after blood collection, the part of the needle that connects with the blood collection tube was removed, and a syringe with heparin was attached and the heparin was slowly injected. An additional 0.4 ml of sterile normal saline was flushed through the needle to ensure that all heparin was delivered. In this way a single needle placement was used for both blood collection and heparin injection, and any additional stress relative to a second venipuncture site was avoided. All goats were milked using a portable milking machine, once every day starting the day the goats arrived. Animals were placed on a milking stand for this procedure. The general protocol for milking was as follows. Personnel doing the milking washed their hands thoroughly and donned latex examination gloves. The udder was cleaned using paper towels and water. The udder was then dried using clean paper towels. […]

lactating goats [2] = experiment: Experiment 2: udder infusion of heparin, toxicity study in lactating goats; format: in vivo, goat
Method: as §1, with “procedure.” for “procedure. The animals were restrained as above. The butterfly needle used for blood collection described above is designed so that blood can be collected via a vacutainer blood collection tube, or a syringe can be attached. Thus, after blood collection, the part of the needle that connects with the blood collection tube was removed, and a syringe with heparin was attached and the heparin was slowly injected. An additional 0.4 ml of sterile normal saline was flushed through the needle to ensure that all heparin was delivered. In this way a single needle placement was used for both blood collection and heparin injection, and any additional stress relative to a second venipuncture site was avoided.”, “towels. The teat was cleaned again using alcohol wipes, and pre-dip (FS-106 Sanitizing Teat Dip, IBA Inc., Millbury, Mass. USA) was applied and allowed to dry. A small sample was expressed from the teat by hand to assess milk quality, perform a streak test, and to be frozen for further analysis. The milking machine was then attached to the udder. After milking, the teats were cleaned with alcohol, and post milking disinfectant was applied (Ultra Shield Sanitizing Barrier Teat Dip, IBA Inc., Millbury, Mass. USA). The volume of milk was determined, and the small sample was frozen and stored in a −80° C. chest freezer for subsequent testing. The six milking goats were divided into 3 groups of 2 goats. All goats were milked daily with a milking machine, and had blood samples taken. After milking and blood collection, goats had their udders infused with heparin using a teat infusion cannula (Udder Infusion Cannula, IBA Inc., Millbury, Mass. USA). Each group received either a low (25,000 Units), medium (100,000 Units), or high (500,000 Units) dose of infused heparin, equivalent to the 3 different expression levels being explored on a per liter of milk basis. Volumes infused were less than 50 ml per udder. This protocol was performed for a total of seven days.” for “towels.”

[3] = Medium dose udder infusion (100,000 units per liter), Animal 4, days 1-8, day 1
[4] = Medium dose udder infusion (100,000 units per liter), Animal 4, days 1-8, day 2
[5] = Medium dose udder infusion (100,000 units per liter), Animal 4, days 1-8, day 3
[6] = Medium dose udder infusion (100,000 units per liter), Animal 4, days 1-8, day 4
[7] = Medium dose udder infusion (100,000 units per liter), Animal 4, days 1-8, day 5
[8] = Medium dose udder infusion (100,000 units per liter), Animal 4, days 1-8, day 6
[9] = Medium dose udder infusion (100,000 units per liter), Animal 4, days 1-8, day 7
[10] = goat infused with the highest levels
[11] = udder infusion, low or medium dose for a week

Substance: heparin
- aPTT (lactating goats [1]; High dose (31,000 Units IV TID), noon and 4 PM samples, above instrument maximum): > 124 s
- aPTT overnight between the two high doses (lactating goats [1]; High dose IV, second High AM sample prior to AM dose): low 40's; also recorded: dropped to more normal levels overnight
- Lung sounds (lactating goats [1]; High dose IV, second day, noon and 4 PM examinations): increase in lung sounds in one animal
- Petechiae or abnormal bleeding (lactating goats [1]; IV heparin over 6 days, any dose): no obvious gross signs of bleeding; also recorded: no evidence of petechiae or abnormal bleeding
- Milk volumes and body temperatures (lactating goats [1]; any IV dose): little, if any, effect; also recorded: not affected
- Milk volume (lactating goats [2]; Low dose udder infusion (25,000 units/liter), Animal 1, days 1-8 (daily infusion days 1-7), day 1): 2.25 L
- Milk volume (lactating goats [2]; Low dose udder infusion (25,000 units/liter), Animal 1, days 1-8 (daily infusion days 1-7), day 3): 2.2 L
- Milk volume (lactating goats [2]; Low dose udder infusion (25,000 units/liter), Animal 1, days 1-8 (daily infusion days 1-7), day 4): 2.0 L
- Milk volume (lactating goats [2]; Low dose udder infusion (25,000 units/liter), Animal 1, days 1-8 (daily infusion days 1-7), day 5): 1.9 L
- Milk volume (lactating goats [2]; Low dose udder infusion (25,000 units/liter), Animal 1, days 1-8 (daily infusion days 1-7), day 6): 1.8 L
- Milk volume (lactating goats [2]; Low dose udder infusion (25,000 units/liter), Animal 1, days 1-8 (daily infusion days 1-7), day 7): 1.7 L
- aPTT time (lactating goats [2]; Low dose udder infusion (25,000 units/liter), Animal 1, days 1-8, day 1): 23.2 s
- aPTT time (lactating goats [2]; Low dose udder infusion (25,000 units/liter), Animal 1, days 1-8, day 2): 36 s
- aPTT time (lactating goats [2]; Low dose udder infusion (25,000 units/liter), Animal 1, days 1-8, day 3): 37 s
- aPTT time (lactating goats [2]; Low dose udder infusion (25,000 units/liter), Animal 1, days 1-8, day 4): 34.9 s
- aPTT time (lactating goats [2]; Low dose udder infusion (25,000 units/liter), Animal 1, days 1-8, day 5): 34.5 s
- aPTT time (lactating goats [2]; Low dose udder infusion (25,000 units/liter), Animal 1, days 1-8, day 6): 34.6 s
- aPTT time (lactating goats [2]; Low dose udder infusion (25,000 units/liter), Animal 1, days 1-8, day 7): 33.5 s
- aPTT time (lactating goats [2]; Low dose udder infusion (25,000 units/liter), Animal 1, days 1-8, day 8): 33.1 s
- Milk volume (lactating goats [2]; Medium dose udder infusion (100,000 units per liter), Animal 2, days 1-8, day 1): 2 L
- Milk volume (lactating goats [2]; Medium dose udder infusion (100,000 units per liter), Animal 2, days 1-8, day 2): 1.35 L
- Milk volume (lactating goats [2]; Medium dose udder infusion (100,000 units per liter), Animal 2, days 1-8, day 3): 1.5 L
- Milk volume (lactating goats [2]; Medium dose udder infusion (100,000 units per liter), Animal 2, days 1-8, day 4): 1.6 L
- Milk volume (lactating goats [2]; Medium dose udder infusion (100,000 units per liter), Animal 2, days 1-8, day 5): 1.3 L
- Milk volume (lactating goats [2]; Medium dose udder infusion (100,000 units per liter), Animal 2, days 1-8, day 6): 1.2 L
- Milk volume (lactating goats [2]; Medium dose udder infusion (100,000 units per liter), Animal 2, days 1-8, day 7): 1.25 L
- Milk volume (lactating goats [2]; Medium dose udder infusion (100,000 units per liter), Animal 2, days 1-8, day 8): 1.75 L
- Milk volume (lactating goats [2]; [3]): 3.25 L
- aPTT time (lactating goats [2]; [3]): 24.7 s
- Milk volume (lactating goats [2]; [4]): 2.75 L
- aPTT time (lactating goats [2]; [4]): 32.7 s
- Milk volume (lactating goats [2]; [5]): 2.5 L
- aPTT time (lactating goats [2]; [5]): 44 s
- Milk volume (lactating goats [2]; [6]): 1.9 L
- aPTT time (lactating goats [2]; [6]): 30.2 s
- Milk volume (lactating goats [2]; [7]): 2.2 L
- aPTT time (lactating goats [2]; [7]): 42.4 s
- Milk volume (lactating goats [2]; [8]): 2.0 L
- aPTT time (lactating goats [2]; [8]): 42.1 s
- Milk volume (lactating goats [2]; [9]): 2.25 L
- aPTT time (lactating goats [2]; [9]): 22.9 s
- aPTT time (lactating goats [2]; Medium dose udder infusion (100,000 units per liter), Animal 4, days 1-8, day 8): 29.8 s
- Milk volume during heparin infusion into the udder (lactating goats [2]; all infusion levels): initial drop in milk volume
- Milk production (lactating goats [2]; [10]): dramatic decrease in milk production
- Udder response (lactating goats [2]; [10]): inflammatory response
- aPTT (lactating goats [2]; high levels of infused heparin): dramatically increased
- Goat health and milk production (lactating goats [2]; low and medium doses of systemic and infused heparin (overall conclusion)): minimal effects
- aPTT (lactating goats [2]; single daily udder infusions of low or medium dose for a week): ≤ 55 s
- Systemic effects (lactating goats [2]; udder infusion of the highest levels): high body temperature and increased respiratory sounds
- Body temperature (lactating goats [2]; [11]): little effect
- Signs of bleeding (lactating goats [2]; [11]): did not produce any signs of bleeding
- aPTT during washout period after heparin udder infusion (lactating goats [2]; washout after udder infusion): 20 to 40 s
